How the values were obtained:
[1] = biological target: Beta-2 adrenergic receptor (Homo sapiens, UniProt P07550)
Description: Displacement of [125]I-cyanopindolol from human recombinant beta2 adrenergic receptor after 1 hr by scintillation counting method

[2] = biological target: Sodium-dependent serotonin transporter (Homo sapiens, UniProt P31645); assay: Inhibition of human SERT expressed in HEK293 cells preincubated for 30 mins followed by fluorescent substrate addition measured after 30 mins by plate reader analysis; type: cell-based
[3] = Solubility of the compound in fed-simulated intestinal fluid; type: ADME; conditions: fed-state simulated intestinal fluid
[4] = system: Canis familiaris; assay: Unbound clearance in dog at 0.5 mg/kg, iv or 2 mg/kg, po; type: ADME, organism-based, Canis lupus familiaris; conditions: in vivo
[5] = Drug recovery in bile duct cannulated rat urine at 10 mg/kg, po measured over 48 hrs; type: ADME, organism-based; conditions: read-out: Drug recovery
[6] = Oral bioavailability in rhesus monkey at 2 mg/kg; type: ADME, organism-based, Macaca mulatta; conditions: in vivo
[7] = Chemical stability of the compound under forced degradation condition; type: physicochemical
[8] = Half life in rat at 1 mg/kg, iv or 2 mg/kg, po; type: ADME, organism-based; conditions: in vivo
[9] = Fraction unbound in cynomolgus monkey at 0.5 mg/kg, iv or 2 mg/kg, po; type: ADME, organism-based, Macaca fascicularis; conditions: in vivo
[10] = system: Rattus norvegicus; assay: Increase in detrusor muscle relaxation in iv infused Sprague-Dawley rat acetic acid-induced bladder hyperreflexia model assessed as increase in functional bladder capacity measured over 30 to 45 mins; type: organism-based
[11] = Intrinsic clearance in rat liver microsomes; type: ADME; conditions: read-out: CLH
[12] = biological target: Cytochrome P450 3A4 (Homo sapiens, UniProt P08684); assay: Time-dependent inhibition of CYP3A4 in human liver microsomes up to 50 uM; type: ADME
[13] = Stability in human plasma assessed as parent compound remaining at 24 hrs by LC-MS analysis; type: ADME, cell-free; conditions: read-out: Stability
[14] = Fraction unbound in rat at 1 mg/kg, iv or 2 mg/kg, po; type: ADME, organism-based; conditions: in vivo
[15] = biological target: Cytochrome P450 1A2 (Homo sapiens, UniProt P05177); assay: Inhibition of CYP1A2 in human liver microsomes; type: ADME
[16] = Plasma clearance in rhesus monkey at 0.5 mg/kg, iv or 2 mg/kg, po; type: ADME, organism-based, Macaca mulatta
[17] = system: Cynomolgus monkey; assay: Dose normalized total AUC in cynomolgus monkey at 2 mg/kg, po; type: ADME, organism-based, Macaca fascicularis; conditions: in vivo
[18] = Drug recovery in bile duct cannulated rat feces at 10 mg/kg, po measured over 48 hrs; type: ADME, organism-based; conditions: faeces, read-out: Drug recovery
[19] = biological target: Beta-3 adrenergic receptor (Rattus norvegicus) (UniProt P26255); assay: Agonist activity at rat beta3 adrenergic receptor expressed in CHO cells assessed as accumulation of cAMP after 30 mins by TR-FRET assay in presence of 40% serum relative to (R)-(-)-isoproterenol; type: functional, cell-based
[20] = system: Hepatocyte; assay: Increase in CYP3A4 mRNA expression in human hepatocytes up to 10 uM; type: ADME, cell-based
[21] = Oral bioavailability in cynomolgus monkey at 2 mg/kg; type: ADME, organism-based, Macaca fascicularis; conditions: in vivo
[22] = Drug recovery in bile duct cannulated rat at 5 mg/kg, iv measured over 48 hrs; type: ADME, organism-based; conditions: in vivo, read-out: Drug recovery
[23] = Distribution coefficient, logD of the compound at pH 7.4; type: physicochemical; conditions: octanol/water
[24] = system: Cynomolgus monkey; assay: Toxicity in cynomolgus monkey assessed as postmortem parameters measured up to 9 months; type: organism-based, Macaca fascicularis; conditions: in vivo
[25] = Drug recovery in bile duct cannulated rat at 10 mg/kg, po measured over 48 hrs; type: ADME, organism-based; conditions: in vivo, read-out: Drug recovery
[26] = system: Canis familiaris; assay: Dose normalized fAUC in dog at 2 mg/kg, po; type: ADME, organism-based, Canis lupus familiaris; conditions: in vivo
[27] = biological target: Sodium channel protein type 2 subunit alpha (Homo sapiens, UniProt Q99250); assay: Inhibition of human Nav1.2 channel expressed in Xenopus oocytes by two-intracellular microelectrode voltage clamp method; type: cell-based
[28] = Half life in cynomolgus monkey at 0.5 mg/kg, iv or 2 mg/kg, po; type: ADME, organism-based, Macaca fascicularis; conditions: in vivo
[29] = Oral bioavailability in dog at 2 mg/kg; type: ADME, organism-based, Canis lupus familiaris; conditions: in vivo
[30] = system: Rattus norvegicus; assay: Dose normalized fAUC in rat at 2 mg/kg, po; type: ADME, organism-based; conditions: in vivo
[31] = Intrinsic clearance in human liver microsomes; type: ADME; conditions: read-out: CLH
[32] = Drug recovery in bile duct cannulated rat urine at 5 mg/kg, iv measured over 48 hrs; type: ADME, organism-based; conditions: read-out: Drug recovery
[33] = Drug recovery in bile duct cannulated rat feces at 5 mg/kg, iv measured over 48 hrs; type: ADME, organism-based; conditions: faeces, read-out: Drug recovery
[34] = biological target: Cytochrome P450 2C9 (Homo sapiens, UniProt P11712); assay: Inhibition of CYP2C9 in human liver microsomes assessed as diclofenac alpha'-hydroxylation; type: ADME
[35] = biological target: Beta-3 adrenergic receptor (Macaca mulatta, UniProt Q28524); assay: Agonist activity at rhesus monkey beta3 adrenergic receptor expressed in CHO cells assessed as accumulation of cAMP after 30 mins by TR-FRET assay; type: functional, cell-based
[36] = Solubility of the compound in fasted-simulated intestinal fluid; type: ADME; conditions: fasted-state simulated intestinal fluid
[37] = biological target: Cytochrome P450 2B6 (Homo sapiens, UniProt P20813); assay: Inhibition of CYP2B6 in human liver microsomes; type: ADME
[38] = Intrinsic clearance in rhesus monkey liver microsomes; type: ADME, Macaca mulatta; conditions: read-out: CLH
[39] = organism: Rattus norvegicus; assay: Toxicity in Sprague-Dawley rat assessed as postmortem parameters measured up to 6 months; type: organism-based; conditions: in vivo
[40] = Induction of phospholidosis in human HepG2 cells incubated overnight by […] in presence of fluorescent labeled phospholipid probe NBD-PE; type: cell-based; conditions: read-out: A50
[41] = Half life in rhesus monkey at 0.5 mg/kg, iv or 2 mg/kg, po; type: ADME, organism-based, Macaca mulatta; conditions: in vivo
[42] = system: Rattus norvegicus; assay: Dose normalized total AUC in rat at 2 mg/kg, po; type: ADME, organism-based; conditions: in vivo
[43] = system: Rattus norvegicus; assay: Increase in detrusor muscle relaxation in iv infused Sprague-Dawley rat acetic acid-induced bladder hyperreflexia model assessed as decrease in micturition pressure measured over 30 to 45 mins; type: functional, organism-based
[44] = biological target: Beta-1 adrenergic receptor (Homo sapiens, UniProt P08588)
Description: Displacement of [125]I-cyanopindolol from recombinant human beta1 adrenergic receptor after 1 hr by scintillation counting method

[45] = biological target: Beta-3 adrenergic receptor (Homo sapiens, UniProt P13945); assay: Agonist activity at human adrenergic beta3 receptor expressed in CHO cells assessed as accumulation of cAMP after 30 mins by TR-FRET assay in presence of 40% serum relative to (R)-(-)-isoproterenol; type: functional, cell-based
[46] = system: MDR1 (human); assay: Apparent permeability of the compound in pig LLC-PK1 cells expressing human MDR1 at 5 uM measured at 3 hrs by LC/MS/MS analysis; type: ADME, cell-based, Sus scrofa
[47] = biological target: Beta-3 adrenergic receptor (Canis lupus familiaris, UniProt O02662); assay: Agonist activity at dog beta3 adrenergic receptor expressed in CHO cells assessed as accumulation of cAMP after 30 mins by TR-FRET assay; type: functional, cell-based
[48] = Solubility of the compound in simulated gastric fluid; type: ADME
[49] = system: Cynomolgus monkey; assay: Toxicity in cynomolgus monkey assessed as effect on electrocadiograms measured up to 9 months; type: organism-based, Macaca fascicularis; conditions: in vivo
[50] = Fraction unbound in dog at 0.5 mg/kg, iv or 2 mg/kg, po; type: ADME, organism-based, Canis lupus familiaris; conditions: in vivo
[51] = biological target: Beta-3 adrenergic receptor (Macaca mulatta) (UniProt Q28524); assay: Agonist activity at rhesus monkey beta3 adrenergic receptor expressed in CHO cells assessed as accumulation of cAMP after 30 mins by TR-FRET assay in presence of 40% serum relative to (R)-(-)-isoproterenol; type: functional, cell-based
Sequence of Beta-3 adrenergic receptor (Macaca mulatta) (Q28524 whole entry): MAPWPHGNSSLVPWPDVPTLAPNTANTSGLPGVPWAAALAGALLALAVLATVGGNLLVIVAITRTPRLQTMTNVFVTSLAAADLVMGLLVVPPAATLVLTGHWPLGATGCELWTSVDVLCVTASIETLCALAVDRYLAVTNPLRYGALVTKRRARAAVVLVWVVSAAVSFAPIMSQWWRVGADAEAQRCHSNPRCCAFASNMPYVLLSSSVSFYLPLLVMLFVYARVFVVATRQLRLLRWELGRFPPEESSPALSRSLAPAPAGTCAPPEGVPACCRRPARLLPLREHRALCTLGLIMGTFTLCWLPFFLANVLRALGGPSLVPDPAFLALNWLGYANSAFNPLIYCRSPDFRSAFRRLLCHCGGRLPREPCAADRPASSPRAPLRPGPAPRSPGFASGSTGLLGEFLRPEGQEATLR

Sequence of Cytochrome P450 2B6 (P20813 whole entry): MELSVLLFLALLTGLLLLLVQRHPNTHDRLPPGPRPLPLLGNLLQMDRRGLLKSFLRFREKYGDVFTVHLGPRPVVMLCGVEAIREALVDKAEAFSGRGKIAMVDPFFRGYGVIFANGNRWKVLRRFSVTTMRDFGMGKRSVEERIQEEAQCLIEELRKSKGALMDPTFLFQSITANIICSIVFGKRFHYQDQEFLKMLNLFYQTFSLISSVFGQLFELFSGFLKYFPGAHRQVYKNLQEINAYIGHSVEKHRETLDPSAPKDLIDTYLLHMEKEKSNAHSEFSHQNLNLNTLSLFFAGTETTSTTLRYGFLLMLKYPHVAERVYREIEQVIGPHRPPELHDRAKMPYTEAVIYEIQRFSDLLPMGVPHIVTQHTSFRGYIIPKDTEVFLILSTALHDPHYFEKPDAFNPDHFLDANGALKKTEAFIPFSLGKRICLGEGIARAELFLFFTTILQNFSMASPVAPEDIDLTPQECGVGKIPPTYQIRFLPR
Sequence of Beta-3 adrenergic receptor (Rattus norvegicus) (P26255 whole entry): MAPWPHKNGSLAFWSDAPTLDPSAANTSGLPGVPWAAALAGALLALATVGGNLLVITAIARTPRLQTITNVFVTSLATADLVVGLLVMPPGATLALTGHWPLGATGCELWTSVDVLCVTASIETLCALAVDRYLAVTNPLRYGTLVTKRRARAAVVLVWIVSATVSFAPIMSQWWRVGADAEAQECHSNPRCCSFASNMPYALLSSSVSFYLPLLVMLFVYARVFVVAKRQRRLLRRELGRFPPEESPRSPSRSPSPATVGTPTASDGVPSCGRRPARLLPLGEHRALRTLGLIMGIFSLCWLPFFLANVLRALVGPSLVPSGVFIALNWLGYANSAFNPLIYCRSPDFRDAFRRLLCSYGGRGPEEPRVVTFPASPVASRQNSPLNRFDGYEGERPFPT
Sequence of Beta-3 adrenergic receptor (Canis lupus familiaris, UniProt O02662) (O02662 whole entry): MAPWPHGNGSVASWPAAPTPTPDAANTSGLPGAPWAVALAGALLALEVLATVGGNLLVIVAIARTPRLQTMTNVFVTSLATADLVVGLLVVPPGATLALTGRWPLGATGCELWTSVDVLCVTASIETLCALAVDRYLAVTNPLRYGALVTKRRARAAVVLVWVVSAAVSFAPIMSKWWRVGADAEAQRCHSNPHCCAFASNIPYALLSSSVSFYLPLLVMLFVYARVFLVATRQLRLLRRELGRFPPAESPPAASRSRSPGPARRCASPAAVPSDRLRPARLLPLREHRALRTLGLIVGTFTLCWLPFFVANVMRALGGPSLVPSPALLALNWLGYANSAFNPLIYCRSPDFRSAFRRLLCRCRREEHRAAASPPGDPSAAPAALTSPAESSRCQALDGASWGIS
Sequence of Sodium-dependent serotonin transporter (P31645 whole entry): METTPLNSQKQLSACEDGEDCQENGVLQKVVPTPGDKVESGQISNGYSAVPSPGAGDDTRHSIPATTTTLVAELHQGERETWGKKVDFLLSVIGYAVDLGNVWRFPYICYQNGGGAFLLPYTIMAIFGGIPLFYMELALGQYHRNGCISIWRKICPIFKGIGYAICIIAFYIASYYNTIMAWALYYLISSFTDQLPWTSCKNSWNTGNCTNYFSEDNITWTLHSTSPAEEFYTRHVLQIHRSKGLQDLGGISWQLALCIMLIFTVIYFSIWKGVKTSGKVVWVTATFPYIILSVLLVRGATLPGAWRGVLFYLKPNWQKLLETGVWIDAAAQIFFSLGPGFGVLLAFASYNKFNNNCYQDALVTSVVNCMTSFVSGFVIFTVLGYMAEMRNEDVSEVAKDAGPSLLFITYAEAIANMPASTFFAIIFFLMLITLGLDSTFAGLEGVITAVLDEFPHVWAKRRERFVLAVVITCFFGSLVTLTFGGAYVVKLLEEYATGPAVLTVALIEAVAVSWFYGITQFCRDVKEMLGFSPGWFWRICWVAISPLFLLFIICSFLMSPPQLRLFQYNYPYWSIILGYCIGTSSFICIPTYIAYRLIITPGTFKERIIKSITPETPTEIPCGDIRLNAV
Sequence of Beta-1 adrenergic receptor (P08588 whole entry): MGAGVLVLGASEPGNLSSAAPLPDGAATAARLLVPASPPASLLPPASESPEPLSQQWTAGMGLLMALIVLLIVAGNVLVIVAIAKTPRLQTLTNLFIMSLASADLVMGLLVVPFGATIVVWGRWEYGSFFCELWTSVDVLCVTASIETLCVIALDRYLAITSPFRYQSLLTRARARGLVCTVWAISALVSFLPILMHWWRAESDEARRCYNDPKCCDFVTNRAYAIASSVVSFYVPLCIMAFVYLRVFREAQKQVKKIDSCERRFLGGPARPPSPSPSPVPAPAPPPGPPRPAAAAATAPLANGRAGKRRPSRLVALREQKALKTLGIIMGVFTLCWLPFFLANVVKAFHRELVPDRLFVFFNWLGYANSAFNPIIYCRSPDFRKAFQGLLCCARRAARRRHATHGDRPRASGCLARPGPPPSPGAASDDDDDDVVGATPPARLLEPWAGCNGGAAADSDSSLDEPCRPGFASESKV
Sequence of Beta-3 adrenergic receptor (Macaca mulatta, UniProt Q28524) (Q28524 whole entry): as the sequence (Q28524 whole entry) above
Sequence of Sodium channel protein type 2 subunit alpha (Q99250 whole entry, looked up): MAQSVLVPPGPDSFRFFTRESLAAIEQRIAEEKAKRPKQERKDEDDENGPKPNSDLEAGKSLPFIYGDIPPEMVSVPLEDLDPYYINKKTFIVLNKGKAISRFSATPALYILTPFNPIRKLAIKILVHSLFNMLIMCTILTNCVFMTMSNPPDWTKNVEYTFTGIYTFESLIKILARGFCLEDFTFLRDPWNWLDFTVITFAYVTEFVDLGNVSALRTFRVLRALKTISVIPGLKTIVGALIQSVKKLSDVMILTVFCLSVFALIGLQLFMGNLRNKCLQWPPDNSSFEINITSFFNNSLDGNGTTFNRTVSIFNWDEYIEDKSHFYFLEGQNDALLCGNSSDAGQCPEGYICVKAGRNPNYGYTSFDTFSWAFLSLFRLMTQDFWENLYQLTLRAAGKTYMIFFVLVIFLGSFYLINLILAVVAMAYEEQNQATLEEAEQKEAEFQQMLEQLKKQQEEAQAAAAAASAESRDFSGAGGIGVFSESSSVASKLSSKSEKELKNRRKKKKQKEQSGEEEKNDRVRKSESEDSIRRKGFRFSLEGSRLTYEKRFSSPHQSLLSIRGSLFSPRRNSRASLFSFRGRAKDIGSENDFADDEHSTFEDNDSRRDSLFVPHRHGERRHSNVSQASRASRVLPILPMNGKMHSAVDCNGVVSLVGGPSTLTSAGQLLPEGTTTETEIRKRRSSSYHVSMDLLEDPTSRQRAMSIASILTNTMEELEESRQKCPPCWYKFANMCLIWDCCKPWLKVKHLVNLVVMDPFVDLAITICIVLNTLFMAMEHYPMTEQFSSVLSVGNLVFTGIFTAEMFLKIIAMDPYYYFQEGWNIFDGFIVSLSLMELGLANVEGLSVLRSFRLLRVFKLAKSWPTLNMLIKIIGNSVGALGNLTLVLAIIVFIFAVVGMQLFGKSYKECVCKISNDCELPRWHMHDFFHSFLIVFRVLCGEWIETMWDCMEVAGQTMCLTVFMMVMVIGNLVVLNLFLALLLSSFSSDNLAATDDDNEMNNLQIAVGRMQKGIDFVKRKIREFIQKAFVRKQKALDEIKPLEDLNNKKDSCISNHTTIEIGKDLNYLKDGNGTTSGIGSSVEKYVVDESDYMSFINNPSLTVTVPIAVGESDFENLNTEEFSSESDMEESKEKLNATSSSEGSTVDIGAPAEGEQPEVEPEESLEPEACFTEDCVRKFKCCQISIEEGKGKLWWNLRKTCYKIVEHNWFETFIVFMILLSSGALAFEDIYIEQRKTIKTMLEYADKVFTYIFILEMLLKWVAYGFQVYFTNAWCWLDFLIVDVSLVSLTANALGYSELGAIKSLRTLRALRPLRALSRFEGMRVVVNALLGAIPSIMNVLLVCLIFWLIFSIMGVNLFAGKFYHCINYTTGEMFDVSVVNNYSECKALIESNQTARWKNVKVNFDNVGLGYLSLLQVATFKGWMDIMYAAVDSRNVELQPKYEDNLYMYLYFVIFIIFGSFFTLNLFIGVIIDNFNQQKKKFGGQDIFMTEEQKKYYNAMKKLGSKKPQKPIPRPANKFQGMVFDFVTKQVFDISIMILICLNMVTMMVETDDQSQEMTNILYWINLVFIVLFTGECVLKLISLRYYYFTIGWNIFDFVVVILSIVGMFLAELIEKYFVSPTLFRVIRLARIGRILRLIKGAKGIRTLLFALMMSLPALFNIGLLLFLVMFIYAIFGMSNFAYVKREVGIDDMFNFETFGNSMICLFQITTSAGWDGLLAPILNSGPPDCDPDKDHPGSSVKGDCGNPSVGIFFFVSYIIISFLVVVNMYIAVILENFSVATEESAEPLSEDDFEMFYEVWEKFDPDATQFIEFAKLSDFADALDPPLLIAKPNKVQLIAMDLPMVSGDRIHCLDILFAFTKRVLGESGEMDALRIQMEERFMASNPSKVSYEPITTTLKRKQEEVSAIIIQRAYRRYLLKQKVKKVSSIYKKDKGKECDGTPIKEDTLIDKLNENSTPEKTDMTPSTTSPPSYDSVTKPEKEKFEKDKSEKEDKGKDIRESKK

IC50 [1]: > 20 µM
IC50 [2]: > 10 µM
solubility [3]: > 4000 µg/mL
CL free [4]: 37 mL/min/kg
dose excreted at 48 h [5]: 32%
bioavailability [6]: 23%
Stability [7]: Stable
half-life [8]: 7 h
fraction unbound [9]: 0.58
CLint scaled [11]: 20 mL/min/kg
TDI [12]: Not Active
remaining at 24 h [13]: 100%
fraction unbound [14]: 0.21
IC50 [15]: > 100 µM
clearance [16]: 16 mL/min/kg
AUC/dose [17]: 870 nM·h/mg/kg
dose excreted at 48 h [18]: 19%
max activation [19]: 89%
Activity [20]: Not Active
bioavailability [21]: 46%
dose excreted at 48 h [22]: 83%
logD [23]: 0.9
dose excreted at 48 h [25]: 87%
fAUC/dose [26]: 490 nM·h/mg/kg
IC50 [27]: > 30 µM
half-life [28]: 7 h
bioavailability [29]: 44%
fAUC/dose [30]: 113 nM·h/mg/kg
CLint scaled [31]: < 10 mL/min/kg
dose excreted at 48 h [32]: 37%
dose excreted at 48 h [33]: 13%
IC50 [34]: > 100 µM
EC50 [35]: 0.00057 µM
solubility [36]: > 4000 µg/mL
IC50 [37]: > 100 µM
CLint scaled [38]: 18 mL/min/kg
AC50 [40]: > 70 µM
half-life [41]: 14 h
AUC/dose [42]: 540 nM·h/mg/kg
IC50 [44]: > 20 µM
max activation [45]: 101%
Papp at 3 h, 5 µM [46]: 2.4 ×10⁻⁶ cm/s
EC50 [47]: 0.011 µM
solubility [48]: > 4000 µg/mL
fraction unbound [50]: 0.41
max activation [51]: 103%
Compound: O=C(Nc1ccc(C[C@@H]2CC[C@H]([C@H](O)c3ccccc3)N2)cc1)[C@@H]1CCc2nccc(=O)n21 [VIBEGRON]
Activity [10]: Dose-dependent effect
Activity [24]: Non-toxic
Activity [39]: Non-toxic
Activity [43]: Dose-dependent effect
Activity [49]: Non-toxic

Reference: ChEMBL document CHEMBL3763146 (J Med Chem, 2016)
